Source: patent US12612416B2, “Modulators of cystic fibrosis transmembrane conductance regulator” (VERTEX PHARMACEUTICALS INCORPORATED, priority 2020, dated 2026)
Where two headings read alike, the source gives them in different places.

Experiments:
[1] = 13-membered ring
[2] = target: CFTR-mediated chloride transport in human intestinal epithelial enteroid cells (Homo sapiens, UniProt P13569); assay: Membrane potential dye, Enteroid Assay B; assay type: cell-based; conditions: for Ent. B Max Activity: % of chloride transport of triple combination control: 1 μM (14S)-8-[3-(2-{Dispiro[2.0.2.1]heptan-7-yl}ethoxy)-1H-pyrazol-1-yl]-12,12-dimethyl-...-2,2,4-trione, 3 μM tezacaftor, 300 nM acute ivacaftor; for EC50: enteroid cells, 18-24 hours incubation, acute 10 μM forskolin and 300 nM ivacaftor, read-out: Ent. B EC50
Description: Base medium (ADF+++) consisted of Advanced DMEM/Ham's F12, 2 mM Glutamax, 10 mM HEPES, […] penicillin/streptomycin.
Intestinal enteroid maintenance medium (IEMM) consisted of ADF+++, 1×B27 supplement, 1×N2 supplement, 1.25 mM N-acetyl cysteine, 10 mM Nicotinamide, 50 ng/mL hEGF, 10 nM Gastrin, 1 μg/mL hR-spondin-1, 100 ng/mL hNoggin, TGF-b type 1 inhibitor A-83-01, 100 μg/mL Primocin, 10 μM P38 MAPK inhibitor SB202190.
Bath 1 Buffer consisted of 1 mM MgCl2, 160 mM NaCl, 4.5 mM KCl, 10 mM HEPES, 10 mM Glucose, 2 mM CaCl2).
Chloride Free Buffer consisted of 1 mM Magnesium Gluconate, 2 mM Calcium Gluconate, 4.5 mM Potassium Gluconate, 160 mM Sodium Gluconate, 10 mM HEPES, 10 mM Glucose.
BathI Dye Solution consisted of Bath 1 Buffer, 0.04% Pluronic F127, 20 μM Methyl Oxonol, 30 μM CaCCinh-A01, 30 μM Chicago Sky Blue.
Chloride Free Dye Solution consisted of Chloride Free Buffer, 0.04% Pluronic F127, 20 μM Methyl Oxonol, 30 μM CaCCinh-A01, 30 μM Chicago Sky Blue.
Chloride Free Dye Stimulation Solution consisted of Chloride Free Dye Solution, 10 μM forskolin, 100 μM IBMX, and 300 nM Compound III.
Human intestinal epithelial enteroid cells were obtained from the Hubrecht Institute for Developmental Biology and Stem Cell Research, Utrecht, The Netherlands and expanded in T-Flasks as previously described (Dekkers J F, Wiegerinck C L, de Jonge H R, Bronsveld I, Janssens H M, de Winter-de Groot K M, Brandsma A M, de Jong N W M, Bijvelds M J C, Scholte B J, Nieuwenhuis E E S, van den Brink S, Clevers H, van der Ent C K, Middendorp S and M Beekman J M. A functional CFTR assay using primary cystic fibrosis intestinal organoids. Nat Med. 2013 July; 19(7):939-45.).
Cells were recovered in cell recovery solution, collected by centrifugation at 650 rpm for 5 minutes at 4° C., resuspended in TrypLE and incubated for 5 minutes at 37° C. Cells were then collected by centrifugation at 650 rpm for 5 minutes at 4° C. and resuspended in IEMM containing 10 μM ROCK inhibitor (RI). The cell suspension was passed through a 40 μm cell strainer and resuspended at 1×10^6 cells/mL in IEMM containing 10 μM RI. Cells were seeded at 5000 cells/well into multi-well plates and incubated for overnight at 37° C., 95% humidity and 5% CO2 prior to assay.
Enteroid cells were incubated with test compound in IEMM for 18-24 hours at 37° C., 95% humidity, and 5% C02. […] Briefly, cells were washed 5 times in Bath 1 Buffer. Bath 1 Dye Solution was added and the cells were incubated for 25 minutes at room temperature. Following dye incubation, cells were washed 3 times in Chloride Free Dye Solution. Chloride transport was initiated by addition of Chloride Free Dye Stimulation Solution and the fluorescence signal was read for 15 minutes. […] Chloride transport was then expressed as a percentage of the chloride transport following treatment with 1 μM (14S)-8-[3-(2-{Dispiro[2.0.2.1]heptan-7-yl}ethoxy)-1H-pyrazol-1-yl]-12,12-dimethyl-2λ^6-thia-3,9,11,18,23-pentaazatetracyclo[17.3.1.111,14.05,10]tetracosa-1(22),5,7,9,19(23),20-hexaene-2,2,4-trione, 3 μM (R)-1-(2,2-difluorobenzo[d][1,3]dioxol-5-yl)-N-(1-(2,3-dihydroxypropyl)-6-fluoro-2-(1-hydroxy-2-methylpropan-2-yl)-1H-indol-5-yl)cyclopropanecarboxamide and 300 nM acute N-[2,4-bis(1,1-dimethylethyl)-5-hydroxyphenyl]-1,4-dihydro-4-oxoquinoline-3-carboxamide triple combination control (% Activity).

Chain of CFTR-mediated chloride transport in human intestinal epithelial enteroid cells (P13569 with tags, fused parts or gaps DEL508-508): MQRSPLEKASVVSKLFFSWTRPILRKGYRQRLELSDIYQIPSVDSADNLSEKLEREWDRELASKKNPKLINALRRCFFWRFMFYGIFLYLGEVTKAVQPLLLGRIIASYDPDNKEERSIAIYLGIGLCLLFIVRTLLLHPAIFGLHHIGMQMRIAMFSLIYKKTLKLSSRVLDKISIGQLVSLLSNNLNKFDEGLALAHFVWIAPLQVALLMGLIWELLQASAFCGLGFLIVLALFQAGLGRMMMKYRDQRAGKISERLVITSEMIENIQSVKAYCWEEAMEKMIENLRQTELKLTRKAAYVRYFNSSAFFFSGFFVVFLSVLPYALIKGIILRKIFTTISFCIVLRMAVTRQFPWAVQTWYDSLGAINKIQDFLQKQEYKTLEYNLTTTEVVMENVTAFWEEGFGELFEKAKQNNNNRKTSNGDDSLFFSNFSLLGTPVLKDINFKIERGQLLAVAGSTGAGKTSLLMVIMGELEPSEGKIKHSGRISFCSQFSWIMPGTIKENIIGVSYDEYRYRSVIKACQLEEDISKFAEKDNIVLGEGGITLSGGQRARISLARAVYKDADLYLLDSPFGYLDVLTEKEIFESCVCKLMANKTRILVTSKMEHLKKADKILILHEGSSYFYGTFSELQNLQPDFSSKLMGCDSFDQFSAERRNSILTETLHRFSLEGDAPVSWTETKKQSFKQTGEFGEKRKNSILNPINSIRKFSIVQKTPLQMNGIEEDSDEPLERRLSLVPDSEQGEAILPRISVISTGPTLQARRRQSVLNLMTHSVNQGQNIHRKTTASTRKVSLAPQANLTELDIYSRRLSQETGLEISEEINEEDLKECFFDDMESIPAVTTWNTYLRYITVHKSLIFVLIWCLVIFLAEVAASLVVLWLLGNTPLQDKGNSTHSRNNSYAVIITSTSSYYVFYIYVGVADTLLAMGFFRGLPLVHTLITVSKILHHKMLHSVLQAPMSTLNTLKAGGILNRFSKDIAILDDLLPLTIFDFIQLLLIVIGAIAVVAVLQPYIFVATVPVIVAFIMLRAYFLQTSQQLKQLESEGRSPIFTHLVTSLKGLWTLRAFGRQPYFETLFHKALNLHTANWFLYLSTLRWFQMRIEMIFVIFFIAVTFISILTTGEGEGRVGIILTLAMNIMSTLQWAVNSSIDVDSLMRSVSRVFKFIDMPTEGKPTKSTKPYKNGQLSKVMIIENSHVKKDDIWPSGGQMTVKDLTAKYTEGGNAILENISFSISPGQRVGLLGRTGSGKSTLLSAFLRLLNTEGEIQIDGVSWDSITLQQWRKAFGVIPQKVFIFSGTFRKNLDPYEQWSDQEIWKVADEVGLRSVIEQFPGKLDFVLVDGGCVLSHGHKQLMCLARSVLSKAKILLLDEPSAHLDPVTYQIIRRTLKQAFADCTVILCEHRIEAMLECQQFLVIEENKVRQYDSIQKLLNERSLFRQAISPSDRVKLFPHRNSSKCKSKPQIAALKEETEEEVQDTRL

COC(=O)C1CC2(C1)CC(N1C(=O)c3cccc(c3)S(=O)(=O)Nc3nc(cc(-c4c(C)cccc4C)n3)CC[C@H]1CC(C)(C)C)C2 (stereo partly shown)
ring closure, yield after HPLC ([1]; from COC(=O)C1CC2(CC(N[C@@H](CCc3cc(-c4c(C)cccc4C)nc(NS(=O)(=O)c4cccc(C(=O)O)c4)n3)CC(C)(C)C)C2)C1, amide bond, CDMT/NMM, DMF, 48.6 mM, 18.0 h): 80%

Cc1cccc(C)c1-c1cc2nc(n1)NS(=O)(=O)c1cccc(c1)C(=O)N(C1CC3(CC3)C1)CCC21CC1 [Compound 41, 6-(2,6-Dimethylphenyl)-2,2-dioxo-12-spiro[2.3]hexan-5-yl-spiro[2λ6-thia-3,5,12,19-tetrazatricyclo[12.3.1.14,8]nonadeca-1(18),4(19),5,7,14,16-hexaene-9,1′-cyclopropane]-13-one]
Ent. B Max Activity [2]: ++ (++ is 30-60%) | EC50 [2]: < 1000 nM

Cc1cccc(C)c1-c1cc2nc(n1)NS(=O)(=O)c1cccc(c1)C(=O)O[C@H]1c3ccc(C(C)(C)C)cc3CN2[C@@H]1CC(C)C
ring closure, yield after HPLC ([1]; from Cc1cccc(C)c1-c1cc(N2Cc3cc(C(C)(C)C)ccc3[C@H](O)[C@H]2CC(C)C)nc(NS(=O)(=O)c2cccc(C(=O)O)c2)n1, ester bond, HATU/NaOtBu, THF/DMF, 25.0 °C, 3 steps): 4%

Cc1cccc(C)c1-c1cc2cc(n1)NS(=O)(=O)c1cccc(c1)C(=O)N(C1CC3(CC3)C1)[C@H](CC(C)C)CC2 [Compound 3, (11S)-6-(2,6-Dimethylphenyl)-11-isobutyl-2,2-dioxo-12-spiro[2.3]hexan-5-yl-2 λ6-thia-3,5,12-triazatricyclo[12.3.1.14,8]nonadeca-1(18),4(19),5,7,14,16-hexaen-13-one]
Ent. B Max Activity [2]: +++ (+++ is >60%) | EC50 [2]: < 1000 nM | ring closure, yield after HPLC ([1]; from Cc1cccc(C)c1-c1cc(CC[C@@H](CC(C)C)NC2CC3(CC3)C2)cc(NS(=O)(=O)c2cccc(C(=O)O)c2)n1, amide bond, HATU/DIEA, DMF, 26.7 mM, 25.0 °C, 0.25 h): 19%

Cc1cccc(C)c1-c1cc2nc(n1)NS(=O)(=O)c1cccc(c1)C(=O)N1Cc3cc(C(C)(C)C)ccc3[C@H](O2)[C@H]1CC(C)C
ring closure, yield after HPLC ([1]; from Cc1cccc(C)c1-c1cc(O[C@H]2c3ccc(C(C)(C)C)cc3CN[C@@H]2CC(C)C)nc(NS(=O)(=O)c2cccc(C(=O)O)c2)n1, amide bond, HATU/NaOtBu, THF/DMF, 80.1 mM, 25.0 °C, 3 steps): 27%

Cc1cccc(C)c1-c1cc2nc(n1)NS(=O)(=O)c1cccc(c1)C(=O)N[C@H](CC(C)C)CC2 [Compound 14]
Ent. B Max Activity [2]: +++ (+++ is >60%) | EC50 [2]: < 1000 nM

Cc1cccc(C)c1-c1cc2nc(n1)NS(=O)(=O)c1cccc(c1)C(=O)OC[C@@H](CC(C)(C)C)N2c1ccnn1C [Compound 29]
Ent. B Max Activity [2]: + (+ is <30%)

COc1c2nc(nc1-c1c(C)cccc1C)NS(=O)(=O)c1cccc(c1)C(=O)N(Cc1cncc(N(C)C3CCC3)n1)[C@H](CC(C)(C)C)CC2
ring closure, yield after HPLC ([1]; from COc1c(CC[C@@H](CC(C)(C)C)NCc2cncc(N(C)C3CCC3)n2)nc(NS(=O)(=O)c2cccc(C(=O)O)c2)nc1-c1c(C)cccc1C, amide bond, CDMT/NMM, DMF, 13.3 mM, 72.5 h): 33%

Cc1cccc(C)c1-c1cc2nc(n1)NS(=O)(=O)c1cccc(c1)C(=O)N(Cc1ccc(C(C)(C)O)cc1)CCC2C (stereo not shown) [Compound 16]
Ent. B Max Activity [2]: +++ (+++ is >60%) | EC50 [2]: < 1000 nM

Cc1cccc(C)c1-c1cc2nc(n1)NS(=O)(=O)c1cccc(c1)C(=O)N(C1CC3(CC3)C1)[C@H](CC1(C(F)(F)F)CC1)CC2 [Compound 7, (11S)-6-(2,6-Dimethylphenyl)-2,2-dioxo-12-spiro[2.3]hexan-5-yl-11-[[1-(trifluoromethyl)cyclopropyl]methyl]-2 λ6-thia-3,5,12,19-tetrazatricyclo [12.3.1.14,8]nonadeca-1(18),4(19),5,7,14,16-hexaen-13-one]
Ent. B Max Activity [2]: +++ (+++ is >60%) | EC50 [2]: < 1000 nM | ring closure, yield after HPLC ([1]; from Cc1cccc(C)c1-c1cc(CC[C@@H](CC2(C(F)(F)F)CC2)NC2CC3(CC3)C2)nc(NS(=O)(=O)c2cccc(C(=O)O)c2)n1, amide bond, HATU/DIEA, NMP, 26.8 mM, 25.0 °C, 16.0 h): 22%

Cc1cccc(C)c1-c1cc2nc(n1)NS(=O)(=O)c1cccc(c1)C(=O)N(C)CCC2C (stereo not shown) [Compound 17]
Ent. B Max Activity [2]: +++ (+++ is >60%) | EC50 [2]: 1000 to 3000 nM

Cc1cccc(C)c1-c1cc2nc(n1)NS(=O)(=O)c1cccc(c1)C(=O)OC[C@@H](CC(C)(C)C)N2Cc1nccc(C(F)(F)F)n1 [Compound 32]
Ent. B Max Activity [2]: + (+ is <30%)

Cc1cccc(C)c1-c1nc2nc(c1C)OCCNC(=O)c1cccc(c1)S(=O)(=O)N2
ring closure, yield after HPLC ([1]; from Cc1cccc(C)c1-c1nc(NS(=O)(=O)c2cccc(C(=O)O)c2)nc(OCCN)c1C, amide bond, HATU/DIEA, DMF, 50.7 mM, 25.0 °C): 23%

Cc1cccc(C)c1-c1cc2nc(n1)NS(=O)(=O)c1cccc(c1)C(=O)N(C1CC3(CC3)C1)CC2Cc1ccc(C(C)(C)C)cc1 (stereo not shown) [Compound 20]
Ent. B Max Activity [2]: ++ (++ is 30-60%) | EC50 [2]: < 1000 nM

Cc1cccc(C)c1-c1cc2nc(n1)NS(=O)(=O)c1cccc(c1)C(=O)N(Cc1ncccn1)CCC2C (stereo not shown) [Compound 18]
Ent. B Max Activity [2]: +++ (+++ is >60%) | EC50 [2]: 1000 to 3000 nM

Cc1cccc(C)c1-c1cc2nc(n1)NS(=O)(=O)c1cccc(c1)C(=O)N(C1CC3(CC3)C1)CC[C@H]2c1ccc(C(C)(C)C)cc1 [Compound 22]
Ent. B Max Activity [2]: ++ (++ is 30-60%) | EC50 [2]: < 1000 nM

Cc1cccc(C)c1-c1cc2nc(n1)NS(=O)(=O)c1cccc(c1)C(=O)N(C1CC3(CC3)C1)CC[C@H]2c1ccc(C(C)(C)C)cc1 [Compound 23]
Ent. B Max Activity [2]: ++ (++ is 30-60%)

Cc1cccc(C)c1-c1cc2nc(n1)NS(=O)(=O)c1cccc(c1)C(=O)N1Cc3cc(C(C)(C)C)ccc3[C@@H](O2)[C@H]1CC(C)C
ring closure, yield after HPLC ([1]; from Cc1cccc(C)c1-c1cc(O[C@@H]2c3ccc(C(C)(C)C)cc3CN[C@@H]2CC(C)C)nc(NS(=O)(=O)c2cccc(C(=O)O)c2)n1, amide bond, HATU/NaOtBu, THF/DMF, 25.0 °C, 3 steps): 1%

Cc1cccc(C)c1-c1cc2nc(n1)NS(=O)(=O)c1cccc(n1)C(=O)N(C1CC3(CC3)C1)[C@H](CC(C)C)CC2 [Compound 15]
Ent. B Max Activity [2]: ++ (++ is 30-60%) | EC50 [2]: < 1000 nM

Cc1cccc(C)c1-c1cc2nc(n1)NS(=O)(=O)c1cccc(c1)C(=O)N(C1CC3(CC3)C1)CCC2c1ccc(C(C)(C)C)cc1 (stereo not shown) [Compound 19]
Ent. B Max Activity [2]: ++ (++ is 30-60%) | EC50 [2]: < 1000 nM

COCCN1CCC2(CC1)CC(N1C(=O)c3cccc(c3)S(=O)(=O)Nc3nc(cc(-c4c(C)cccc4C)n3)CC[C@H]1CC(C)C)C2 [Compound 9, (11S)-6-(2,6-Dimethylphenyl)-11-isobutyl-12-[7-(2-methoxyethyl)-7-azaspiro[3.5]nonan-2-yl]-2,2-dioxo-2λ6-thia-3,5,12,19-tetrazatricyclo[12.3.1.14,8]nonadeca-1(18),4(19),5,7,14,16-hexaen-13-one]
Ent. B Max Activity [2]: +++ (+++ is >60%) | EC50 [2]: < 1000 nM

Cc1cccc(C)c1-c1cc2nc(n1)NS(=O)(=O)c1cccc(c1)C(=O)N(CCCC(C)(C)O)CCC2C (stereo not shown) [Compound 10, 6-(2,6-Dimethylphenyl)-12-(4-hydroxy-4-methyl-pentyl)-9-methyl-2,2-dioxo-2λ6-thia-3,5,12,19-tetrazatricyclo[12.3.1.14,8]nonadeca-1(18),4(19),5,7,14,16-hexaen-13-one]
Ent. B Max Activity [2]: +++ (+++ is >60%) | EC50 [2]: 1000 to 3000 nM
